ChEMBL document CHEMBL2021868, “Synthesis and evaluation of [¹⁸F]fluororasagiline, a novel positron emission tomography (PET) radioligand for monoamine oxidase B (MAO-B)” (Bioorg Med Chem, 2012)
pIC50: −log10 of the molar value.

Legend:
Homo sapiens = species: Homo sapiens; test: Selectivity ratio of IC50 for human recombinant MAO-A to IC50 for human recombinant MAO-B
[1] = Chemical stability of the compound in PBS assessed as compound remaining at pH 7.4 after 180 mins; assay type: physicochemical; conditions: read-out: Stability
[2] = molecular target: T1, Amine oxidase [flavin-containing] B (Homo sapiens, UniProt P27338); test: Inhibition of human recombinant MAO-B expressed in insect cells assessed as kynuramine hydrobromide oxidation after 20 mins by spectrophotometric analysis; assay type: cell-based
T1 sequence (P27338 whole entry): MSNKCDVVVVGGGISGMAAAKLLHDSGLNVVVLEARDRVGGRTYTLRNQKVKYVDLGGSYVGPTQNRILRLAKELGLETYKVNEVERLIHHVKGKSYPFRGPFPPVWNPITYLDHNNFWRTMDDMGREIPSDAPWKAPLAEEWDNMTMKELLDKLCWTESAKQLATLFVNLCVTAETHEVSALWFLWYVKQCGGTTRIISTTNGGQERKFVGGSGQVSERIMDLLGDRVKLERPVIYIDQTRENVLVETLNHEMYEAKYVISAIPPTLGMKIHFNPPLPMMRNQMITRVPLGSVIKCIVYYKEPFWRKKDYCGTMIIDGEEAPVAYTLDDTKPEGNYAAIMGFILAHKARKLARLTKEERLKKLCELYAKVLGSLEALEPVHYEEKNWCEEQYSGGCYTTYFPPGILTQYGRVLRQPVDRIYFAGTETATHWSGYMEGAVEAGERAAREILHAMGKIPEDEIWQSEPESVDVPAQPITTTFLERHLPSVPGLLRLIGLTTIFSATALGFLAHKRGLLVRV

[3] = molecular target: T2, Amine oxidase [flavin-containing] A (Homo sapiens, UniProt P21397); test: Inhibition of human recombinant MAO-A expressed in insect cells assessed as kynuramine hydrobromide oxidation after 20 mins by spectrophotometric analysis
T2 sequence (P21397 whole entry): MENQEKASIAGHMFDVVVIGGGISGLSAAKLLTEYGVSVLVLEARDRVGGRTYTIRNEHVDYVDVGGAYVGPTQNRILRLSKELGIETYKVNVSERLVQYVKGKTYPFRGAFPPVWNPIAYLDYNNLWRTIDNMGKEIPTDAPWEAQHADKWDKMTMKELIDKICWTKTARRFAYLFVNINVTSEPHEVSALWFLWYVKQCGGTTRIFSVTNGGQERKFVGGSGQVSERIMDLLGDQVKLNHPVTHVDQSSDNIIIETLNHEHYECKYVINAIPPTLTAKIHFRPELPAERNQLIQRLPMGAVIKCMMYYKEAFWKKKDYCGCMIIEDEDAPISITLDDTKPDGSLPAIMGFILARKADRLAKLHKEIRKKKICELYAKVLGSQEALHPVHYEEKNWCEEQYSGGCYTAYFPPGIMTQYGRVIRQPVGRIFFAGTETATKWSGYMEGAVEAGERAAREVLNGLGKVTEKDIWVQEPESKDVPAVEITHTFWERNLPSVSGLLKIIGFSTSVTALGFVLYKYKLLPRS

[4] = molecular target: T1, Amine oxidase [flavin-containing] B; test: Binding affinity to MAO-B in human brain hippocampus region at 4 MBq/200 ml after 90 mins by autoradiography analysis; assay type: tissue-based; conditions: 1.5 h
[5] = molecular target: T1, Amine oxidase [flavin-containing] B; test: Binding affinity to MAO-B in human brain putamen region at 4 MBq/200 ml after 90 mins by autoradiography analysis; conditions: 1.5 h
[6] = molecular target: T1, Amine oxidase [flavin-containing] B; test: Binding affinity to MAO-B in human brain caudate nucleus region at 4 MBq/200 ml after 90 mins by autoradiography analysis; conditions: 1.5 h
[7] = molecular target: T1, Amine oxidase [flavin-containing] B; test: Binding affinity to MAO-B in human brain external globus pallidus region at 4 MBq/200 ml after 90 mins by autoradiography analysis; assay type: tissue-based; conditions: 1.5 h
[8] = molecular target: T1, Amine oxidase [flavin-containing] B; test: Binding affinity to MAO-B in human brain thalamus region at 4 MBq/200 ml after 90 mins by autoradiography analysis; assay type: tissue-based; conditions: 1.5 h
[9] = molecular target: T1, Amine oxidase [flavin-containing] B; test: Binding affinity to MAO-B in human brain at 4 MBq/200 ml after 90 mins by autoradiography analysis in presence of 10 uM L-deprenyl; conditions: 1.5 h
[10] = molecular target: T1, Amine oxidase [flavin-containing] B; test: Binding affinity to MAO-B in human brain at 4 MBq/200 ml after 90 mins by autoradiography analysis in presence of 10 uM rasagiline; conditions: 1.5 h
[11] = molecular target: T1, Amine oxidase [flavin-containing] B; test: Binding affinity to MAO-B in human brain at 4 MBq/200 ml after 90 mins by autoradiography analysis in presence of 10 uM pirlindole; conditions: 1.5 h
Brain [12] = test: Drug uptake in cynomolgus monkey brain at 163 MBq, iv after 4 mins; assay type: ADME, organism-based, Macaca fascicularis; conditions: in vivo
[13] = Drug uptake in cynomolgus monkey striatum at 163 MBq, iv measured up to 120 mins; assay type: ADME, organism-based, Macaca fascicularis; conditions: in vivo, 2 h
Thalamus = test: Drug uptake in cynomolgus monkey thalamus at 163 MBq, iv measured up to 120 mins; assay type: ADME, organism-based, Macaca fascicularis; conditions: in vivo, 2 h
[14] = Drug uptake in cynomolgus monkey cerebellum at 163 MBq, iv measured up to 120 mins; assay type: ADME, organism-based, Macaca fascicularis; conditions: in vivo, 2 h
[15] = Drug uptake in cynomolgus monkey cortex at 163 MBq, iv measured up to 120 mins; assay type: ADME, organism-based, Macaca fascicularis; conditions: in vivo, 2 h
Brain [16] = test: Drug uptake in cynomolgus monkey brain at 163 MBq, iv measured after wash out; assay type: ADME, organism-based, Macaca fascicularis; conditions: in vivo
Plasma [17] = test: Drug metabolism in cynomolgus monkey plasma assessed as [18F]a metabolite retention time at 163 Mbq, iv measured by HPLC analysis; assay type: ADME, organism-based, Macaca fascicularis; conditions: in vivo
Plasma [18] = test: Drug metabolism in cynomolgus monkey plasma assessed as [18F]b metabolite retention time at 163 Mbq, iv measured by HPLC analysis; assay type: ADME, organism-based, Macaca fascicularis; conditions: in vivo
Plasma [19] = test: Drug metabolism in cynomolgus monkey plasma assessed as [18F]fluoroaminoindan metabolite retention time at 163 Mbq, iv measured by HPLC analysis; assay type: ADME, organism-based, Macaca fascicularis; conditions: in vivo
Plasma [20] = test: Metabolic stability in cynomolgus monkey plasma assessed as radioactivity remaining at 163 Mbq, iv measured after 45 mins by HPLC analysis; assay type: ADME, organism-based, Macaca fascicularis; conditions: in vivo, 0.75 h
Plasma [21] = test: Metabolic stability in cynomolgus monkey plasma assessed as radioactivity remaining at 163 Mbq, iv measured after 120 mins by HPLC analysis; assay type: ADME, organism-based, Macaca fascicularis; conditions: in vivo, 2 h
Plasma [22] = test: Drug metabolism in cynomolgus monkey plasma assessed as formation of [18F]fluoroaminoindan metabolite at 163 Mbq, iv by HPLC analysis in presence of non-radioactive compound; assay type: ADME, organism-based, Macaca fascicularis; conditions: in vivo

## C#CCN[C@H]1c2ccccc2C[C@@H]1F
Homo sapiens
  Ratio IC50: 84

## C#CCN[C@H]1c2ccccc2C[C@@H]1[18F] [[18F]FLUORORASAGILINE]
[1]
  remaining at 3 h: > 97%
[2]
  pIC50: 7.57
[3]
  pIC50: 5.64
[4]
  Activity: Active
[5]
  Activity: Active
[6]
  Activity: Active
[7]
  Activity: Active
[8]
  Activity: Active
[9]
  Activity: Not Active
[10]
  Activity: Not Active
[11]
  Activity: Active
Brain [12]
  SUV: 250%
[13]
  Drug uptake: Active
Thalamus
  Drug uptake: Active
[14]
  Drug uptake: Not Active
[15]
  Drug uptake: Not Active
Brain [16]
  Drug uptake: Active
Plasma [17]
  Time: 2.7 min
Plasma [18]
  Time: 9.2 min
Plasma [19]
  Time: 4.6 min
Plasma [20]
  Stability: 50%
Plasma [21]
  Stability: 20%
Plasma [22]
  Drug metabolism: Active
